Source: patent US10011562B2, “Long-chain dimethylaniline derivative compounds, their preparation methods, self-assembled textures, and uses thereof” (WEST CHINA HOSPITAL, SICHUAN UNIVERSITY, priority 2014, dated 2018)
Where a name gives a salt, the structure may show the parent alone.

Key:
sciatic nerve of rats [1] = test: Second local anesthetic experiment of rats: blocking of sciatic nerve, motor function (PET); assay type: in vivo; details: 0.2 ml of formulated solution injected close to sciatic nerve, lidocaine 2% (84 mmol/L)
Protocol: (§1) The tested rats were placed on bench board and allowed to inhale 5% isoflurane. After body-righting reflex abolition, rats are allowed to continue inhaling 1.5% isoflurane, to keep anesthesia. Keeping left-lateral position, their corresponding injection area sacrococygeal region was shaved, then routine sterilization and draping were performed. Two osseous anatomic landmarks greater trochanter of femur and tuber is chiadicum were laid hands, and the middle point of this line was the needle insertion position. If skin was taut, 1 ml injector was inserted along perpendicular of skin. When needlepoint reached hucklebone, the insertion was finished. Once no blood return was found as suction, 0.2 ml drug solution was slowly injected. Needle was lifted, and is oflurane was shut off. Animals were placed in observation cage until they naturally awakened.
The hindlimb postural extensor thrust (PET) was used for evaluation. Rats were lifted vertically and their hindlimbs of injection side stepped on the top of electronic balance. At this time, the postural extensor thrust was shown as the value of balance. When limbs were completely paralytic, the digital reading was the weight of limbs, about 20 g. […]

sciatic nerve of rats [2] = test: First local anesthetic experiment of rats: blocking of sciatic nerve, mechanical withdrawal threshold (VFH, von Frey filaments); assay type: in vivo
Protocol: (§2) Selected above micelle, positive control lidocaine, and negative control normal saline were respectively administrated to 28 groups of test rats fully adapted to experiment environment, with five rats for each group. The administration dosage is: the concentration of lidocaine group being 2% aqueous solution (84 mmol/L), and the concentration of tested drug being 5 mmol/L. The injection volume of each rat receiving drugs or the control was 0.2 ml, and the drug or the control was injected to close to sciatic nerve of rats by guidance of nerve locator.
as §1, with “Once no blood return was found as suction, 0.2 ml drug solution was slowly injected.” left out
(§3) Rats were placed in transparent observation cages with a bottom of smooth metal sieve plate, and the corrected von frey filament was used to stimulate the foot lateral skin of rats (innervated region of sciatic nerve) from down to up. […] For each stimulation, slightly bent of filament was used as a standard, or rats moved aside this side of limbs. Otherwise, once the stimulation time reached 3 s, operator stopped stimulating. Three tests were carried out for each time point, and the interval between two tests was 5 min, to avoid sensibilization.
(§4) If the mechanical withdrawal threshold value was more than 60 g, the nerve blocking was considered as effective.

sciatic nerve of rats [3] = test: Third local anesthetic experiment of rats: hydrogels embedded near the sciatic nerve, mechanical withdrawal threshold (VFH); assay type: in vivo
Protocol: as §3, §4
(§5) 25 mmol/L transparent uniform hydrogels of products obtained in Examples 7-10 and 13-32 were prepared under sterile conditions, as the method of Example 45, and kept for use.
(§6) Above hydrogels, positive control lidocaine, and negative control normal saline were respectively administrated to 35 groups of test rats fully adapted to experiment environment, with five rats for each group. The administration dosage is: the concentration of lidocaine group being 2% aqueous solution (84 mmol/L). The injection volume of each rat receiving drugs or the control was […], and the control was injected to near the sciatic nerve of rats by guidance of nerve locator; by surgery, the gels were embedded near the sciatic nerve of experimental rats after general anesthesia using sevoflurane. Specific procedures and the evaluation criterion for local anesthetic effect were same as mentioned in Example 60.

sciatic nerve of rats [4] = test: Second local anesthetic experiment of rats: blocking of sciatic nerve, mechanical withdrawal threshold (VFH); assay type: in vivo; details: 0.2 ml of formulated solution injected close to sciatic nerve, lidocaine 2% (84 mmol/L)
Protocol: as §1
as §3, with “sensibilization. […]” for “sensibilization.”

sciatic nerve of rats [5] = test: First local anesthetic experiment of rats: blocking of sciatic nerve, motor function by hindlimb postural extensor thrust (PET); assay type: in vivo
Protocol: as §2
as §1, with “Once no blood return was found as suction, 0.2 ml drug solution was slowly injected.” left out
(§7) The hindlimb postural extensor thrust (PET) was used for evaluation. Rats were lifted vertically and their hindlimbs of injection side stepped on the top of electronic balance. At this time, the postural extensor thrust was shown as the value of balance. When limbs were completely paralytic, the digital reading was the weight of limbs, about 20 g. If the test value was more than half of the difference between the baseline and the limbs weight, the motor function was taken as recovery; If less than or equal to half of the difference, the motor function was taken as deprivation.
(§8) The interval between completion of injection and the time point that the motor function was firstly deprivated was the time of effective motor blocking; the interval between completion of injection and the time point that the motor function was firstly recovered was the time of ineffective motor blocking; their difference was the hold time of motor blocking.

sciatic nerve of rats [6] = test: Third local anesthetic experiment of rats: hydrogels embedded near the sciatic nerve, motor function (PET); assay type: in vivo
Excerpt: as §7, §8, §5, §6

Na+ channels = details: with the addition of surface-active agent or with the help of forming micelles; cited from earlier work
[7] = rats, 25 mmol/L hydrogel, 0.2 g embedded by surgery near sciatic nerve, lidocaine 2% (84 mmol/L) injected

Question: With `CCN(CC)CC(=O)Nc1c(C)cccc1C` [2% lidocaine hydrochloride, lidocaine hydrochloride, reference compound] as the molecule, how does the “The hold time of motor blocking” value (sciatic nerve of rats [1]) read?
Answer: 2 h

Question: What about the “The hold time of sensation blocking” value (sciatic nerve of rats [2]; rats, 0.2 ml injected close to sciatic nerve, tested drug 5 mmol/L solution (micelle), lidocaine 2% (84 mmol/L), threshold above 60 g) of the same molecule?
Answer: 2 h

Question: And the “Effective local anesthetic time” value (sciatic nerve of rats [2]; rats, 0.2 ml injected close to sciatic nerve, tested drug 5 mmol/L solution (micelle), lidocaine 2% aqueous solution (84 mmol/L))?
Answer: 1 min

Question: And the “Effective local anesthetic time” value (sciatic nerve of rats [3]; [7])?
Answer: 1 min

Question: And the “The hold time of sensation blocking” value (sciatic nerve of rats [3]; [7])?
Answer: 2 h

Question: What about the “Effective local anesthetic time” value (sciatic nerve of rats [4]) of the same molecule?
Answer: 1 min

Question: What about the “The hold time of sensation blocking” value (sciatic nerve of rats [4]) of the same molecule?
Answer: 2 h

Question: And the “The hold time of motor blocking” value (sciatic nerve of rats [5]; rats, 0.2 ml injected close to sciatic nerve, tested drug 5 mmol/L solution (micelle), lidocaine 2% (84 mmol/L))?
Answer: 2 h

Question: What about the “The hold time of motor blocking” value (sciatic nerve of rats [6]; [7]) of the same molecule?
Answer: 2 h

Question: What does the source list for `CCCCCCCCCCCCCCOC(=O)OCC[N+](CC)(CC)CC(=O)Nc1c(C)cccc1C` [Example28product]?
Answer: Effective local anesthetic time (sciatic nerve of rats [2]; rat, in vivo): 20 min; The hold time of sensation blocking (sciatic nerve of rats [2]; rat, in vivo): 76 h; Effective local anesthetic time (sciatic nerve of rats [3]; rat, in vivo): 88 min; The hold time of sensation blocking (sciatic nerve of rats [3]; rat, in vivo): 83 h; The hold time of motor blocking (sciatic nerve of rats [5]; rat, in vivo): 79 h; The hold time of motor blocking (sciatic nerve of rats [6]; rat, in vivo): 79 h

Question: For `CCCCCCCCCCCCCCCCOC(=O)OCC[N+](CC)(CC)CC(=O)Nc1c(C)cccc1C` [Example29product], which “Effective local anesthetic time” value (sciatic nerve of rats [2]; rat, in vivo) is on record?
Answer: 20 min

Question: What about the “The hold time of sensation blocking” value (sciatic nerve of rats [2]; rat, in vivo) of the same molecule?
Answer: 78 h

Question: And the “Effective local anesthetic time” value (sciatic nerve of rats [3]; rat, in vivo)?
Answer: 92 min

Question: What about the “The hold time of sensation blocking” value (sciatic nerve of rats [3]; rat, in vivo) of the same molecule?
Answer: 86 h

Question: And the “The hold time of motor blocking” value (sciatic nerve of rats [5]; rat, in vivo)?
Answer: 80 h

Question: And the “The hold time of motor blocking” value (sciatic nerve of rats [6]; rat, in vivo)?
Answer: 84 h

Question: With `CCCCCCCCCCCCCCCCOC(=O)OCC[N+](CC)(CC)CC(=O)Nc1c(C)cccc1C` [Example30product] as the molecule, how does the “Effective local anesthetic time” value (sciatic nerve of rats [2]; rat, in vivo) read?
Answer: 19 min

Question: What about the “The hold time of sensation blocking” value (sciatic nerve of rats [2]; rat, in vivo) of the same molecule?
Answer: 74 h

Question: What about the “Effective local anesthetic time” value (sciatic nerve of rats [3]; rat, in vivo) of the same molecule?
Answer: 95 min

Question: And the “The hold time of sensation blocking” value (sciatic nerve of rats [3]; rat, in vivo)?
Answer: 87 h

Question: What about the “The hold time of motor blocking” value (sciatic nerve of rats [5]; rat, in vivo) of the same molecule?
Answer: 78 h

Question: And the “The hold time of motor blocking” value (sciatic nerve of rats [6]; rat, in vivo)?
Answer: 86 h

Question: For `CCCCCCCCCCCCCCCCCCOC(=O)OCC[N+](CC)(CC)CC(=O)Nc1c(C)cccc1C` [Example31product], which “Effective local anesthetic time” value (sciatic nerve of rats [2]; rat, in vivo) is on record?
Answer: 20 min

Question: And the “The hold time of sensation blocking” value (sciatic nerve of rats [2]; rat, in vivo)?
Answer: 78 h

Question: What about the “Effective local anesthetic time” value (sciatic nerve of rats [3]; rat, in vivo) of the same molecule?
Answer: 92 min

Question: What about the “The hold time of sensation blocking” value (sciatic nerve of rats [3]; rat, in vivo) of the same molecule?
Answer: 83 h

Question: And the “The hold time of motor blocking” value (sciatic nerve of rats [5]; rat, in vivo)?
Answer: 80 h

Question: What about the “The hold time of motor blocking” value (sciatic nerve of rats [6]; rat, in vivo) of the same molecule?
Answer: 78 h

Question: For `CC[N+](CC)(CC)CC(=O)Nc1c(C)cccc1C.[Br-]` [QX314], which “local anesthetic actions lasting” value (Na+ channels) is on record?
Answer: more than 8 hours
